Measured values: patent US11629171B2, “Beta-hairpin peptidomimetics” (POLYPHOR AG, priority 2017, dated 2023)
In brackets after ≈: the same amount, converted by molar mass. Where a SMILES comes first, the peptide text is derived from it. Bridges are numbered along the chain shown (N, C = ends). Roman numbers before positions name the chains, in order. [ ]: non-standard residue; d: D form. Pen = CC(C)(S)[C@H](N)C(=O)O; Hiv = CC(C)[C@H](O)C(=O)O; dDab = NCC[C@@H](N)C(=O)O; Dab = NCC[C@H](N)C(=O)O; Abu = CC[C@H](N)C(=O)O; Dap = NC[C@H](N)C(=O)O

Tests used:
male ICR mice = assay: Tolerability in a mouse model (Maximum Tolerated Dose assay); format: in vivo; details: groups of 3
Outline: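 Groups of 3 male ICR mice weighing 23±3 g received two subcutaneous doses, 12 h apart, of 30 or 40 mg/kg in saline adjusted to pH 6.5-7.6. Observation for 30 min after each dose covered autonomic effects and acute toxicity, including death.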

[1] = tested on: human red blood cells (hRBC); assay: Hemolysis; format: cell-based; details: red cells of human, 1 h, 200
Outline: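 hRBC washed 4× in PBS; 200 μg/mL peptide + 20% (v/v) hRBC, 1 h, 37° C, 300 rpm. Spin, supernatant ~7.5-fold diluted, OD540 blank corrected. % hemolysis = OD540 peptide / OD540 Triton X-100 × 100.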

[2] = tested on: Acinetobacter baumannii 872842; format: cell-based; details: 872842
Outline: (§1)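 Peptides are tested in serial two-fold dilutions against about 10^6 CFU/mL in MH-II broth containing 0.002% P-80 (v/v, final). Plates incubate 18-20 h at 35° C, and the MIC is the lowest peptide level (μg/mL) showing no visible growth.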

[3] = tested on: Escherichia coli ATCC 25922; format: cell-based; details: ATCC 25922
Outline: as §1

[4] = tested on: Klebsiella pneumoniae SSI #3010; format: cell-based; details: SSI #3010
Outline: as §1

[5] = tested on: Acinetobacter baumannii DSM 30008; format: cell-based; details: DSM 30008
Outline: as §1

Escherichia coli 926415 = format: cell-based; details: 926415
Outline: as §1

[6] = tested on: Klebsiella pneumoniae 968733; format: cell-based; details: 968733
Outline: as §1

[7] = tested on: Pseudomonas aeruginosa ATCC 27853; format: cell-based; details: ATCC 27853
Outline: as §1

[8] = tested on: Enterobacter cloacae 848840; format: cell-based; details: 848840
Outline: as §1

[9] = 2 × 40 mg/kg s.c. at a 12-hr interval
[10] = 2 × 30 mg/kg s.c. at a 12-hr interval

Structure (SMILES)	Mortality and dose (male ICR mice; [9])	Hemolysis at 200 μg/mL [1] [%]	MIC [2] [µg/mL]	Escherichia coli ATCC 25922 MIC [3] [µg/mL]	Klebsiella pneumoniae SSI #3010 MIC [4] [µg/mL]	Acinetobacter baumannii DSM 30008 MIC [5] [µg/mL]	MIC (Escherichia coli 926415) [µg/mL]	MIC [6] [µg/mL]	Pseudomonas aeruginosa ATCC 27853 MIC [7] [µg/mL]	MIC [8] [µg/mL]	Mortality and dose (male ICR mice; [10])	MIC [3] [µg/mL]	MIC [4] [µg/mL]	MIC [5] [µg/mL]	MIC [7] [µg/mL]
CC(C)C[C@@H]1NC(=O)[C@@H](CC(C)C)NC(=O)[C@H](CCN)NC(=O)[C@@H](NC(=O)[C@H](CN)NC(=O)[C@@H](NC(=O)[C@H](CCN)NC(=O)CC[C@@H]2NC(=O)[C@H](CCN)NC(=O)[C@H](Cc3ccc(O)cc3)NC(=O)[C@@H](NC(=O)[C@@H](O)C(C)C)C(C)(C)SSC[C@@H](C(=O)N[C@@H](CO)C(N)=O)NC(=O)[C@H](C(C)C)NC(=O)[C@H](CO)NC(=O)[C@H](Cc3c[nH]c4ccccc34)NC(=O)[C@H](CO)NC(=O)[C@@H](CCN)NC2=O)[C@@H](C)O)CCNC(=O)[C@H]([C@@H](C)O)NC(=O)[C@H](CCN)NC(=O)[C@H](CCN)NC1=O [Ex. 340] (I: H-[Hiv][Pen]Y[Dab]E[dDab]SWSVCS-NH2 / II: [Dab]T[Dap][Dab][Dab][dL]L[Dab][Dab]T; disulfide I:2-I:11; amide I:5-II:N; lactam II:4-II:C)	0/3 died at 2 × 40 mg/kg	<1	0.0625 (≈ 0.0262 µM)	0.03125	0.0625	0.0625	0.125 (≈ 0.0524 µM)	0.25 (≈ 0.105 µM)	0.25	0.125 (≈ 0.0524 µM)	–	–	–	–	–
CC[C@@H]1NC(=O)[C@@H](CC(C)C)NC(=O)[C@H](CCN)NC(=O)[C@@H](NC(=O)[C@H](CN)NC(=O)[C@@H](NC(=O)[C@H](CCN)NC(=O)CC[C@@H]2NC(=O)[C@@H](NC(=O)[C@H](Cc3ccc(O)cc3)NC(=O)[C@@H](NC(=O)[C@@H](NC(C)=O)C(C)C)[C@@H](C)O)CSSC(C)(C)[C@@H](C(=O)N[C@H](C(=O)N[C@H](C(=O)N[C@H](C(N)=O)[C@@H](C)O)[C@@H](C)O)C(C)C)NC(=O)[C@H](Cc3c[nH]c4ccccc34)NC(=O)[C@H](CCN)NC(=O)[C@@H](CCN)NC2=O)[C@@H](C)O)CCNC(=O)[C@H]([C@@H](C)O)NC(=O)[C@H](CCN)NC(=O)[C@H](CCN)NC1=O [Ex. 266] (I: Ac-VTYCE[dDab][Dab]W[Pen]VTT-NH2 / II: [Dab]T[Dap][Dab][Dab][dL][Abu][Dab][Dab]T; disulfide I:4-I:9; amide I:5-II:N; lactam II:4-II:C)	–	1	0.5 (≈ 0.205 µM)	–	–	–	0.5 (≈ 0.205 µM)	1 (≈ 0.41 µM)	–	0.25 (≈ 0.102 µM)	0/3 died at 2 × 30 mg/kg	0.03125 (≈ 0.0128 µM)	0.0625 (≈ 0.0256 µM)	0.0625 (≈ 0.0256 µM)	0.125 (≈ 0.0512 µM)
CC(=O)N[C@H](C(=O)N[C@H]1CSSC[C@@H](C(=O)N[C@@H](CO)C(N)=O)NC(=O)[C@H](C(C)C)NC(=O)[C@H](CCC(=O)O)NC(=O)[C@H](Cc2c[nH]c3ccccc23)NC(=O)[C@H](CO)NC(=O)[C@@H](CCN)NC(=O)[C@H](CCC(=O)N[C@@H](CCN)C(=O)N[C@H](C(=O)N[C@@H](CN)C(=O)N[C@H]2CCNC(=O)[C@H]([C@@H](C)O)NC(=O)[C@H](CCN)NC(=O)[C@H](CCN)NC(=O)[C@H](CC(C)C)NC(=O)[C@@H](CC(C)C)NC(=O)[C@H](CCN)NC2=O)[C@@H](C)O)NC(=O)[C@H](CCN)NC(=O)[C@H](Cc2ccc(O)cc2)NC1=O)C(C)C [Ex. 150] (I: Ac-VCY[Dab]E[dDab]SWEVCS-NH2 / II: [Dab]T[Dap][Dab][Dab][dL]L[Dab][Dab]T; disulfide I:2-I:11; amide I:5-II:N; lactam II:4-II:C)	–	<1	0.125 (≈ 0.0512 µM)	–	–	–	0.25 (≈ 0.102 µM)	0.5 (≈ 0.205 µM)	–	0.125 (≈ 0.0512 µM)	0/3 died at 2 × 30 mg/kg	0.03125 (≈ 0.0128 µM)	0.125 (≈ 0.0512 µM)	0.0625 (≈ 0.0256 µM)	0.125 (≈ 0.0512 µM)
CC[C@@H]1NC(=O)[C@@H](CC(C)C)NC(=O)[C@H](CCN)NC(=O)[C@@H](NC(=O)[C@H](CN)NC(=O)[C@@H](NC(=O)[C@H](CCN)NC(=O)CC[C@@H]2NC(=O)[C@H](CCN)NC(=O)[C@H](Cc3ccc(O)cc3)NC(=O)[C@@H](NC(=O)[C@@H](NC(C)=O)C(C)C)CSSC[C@@H](C(=O)N[C@@H](CO)C(N)=O)NC(=O)[C@H](C(C)C)NC(=O)[C@H](CCN)NC(=O)[C@H](Cc3c[nH]c4ccccc34)NC(=O)[C@H](CO)NC(=O)[C@@H](CCN)NC2=O)[C@@H](C)O)CCNC(=O)[C@H]([C@@H](C)O)NC(=O)[C@H](CCN)NC(=O)[C@H](CCN)NC1=O [Ex. 300] (I: Ac-VCY[Dab]E[dDab]SW[Dab]VCS-NH2 / II: [Dab]T[Dap][Dab][Dab][dL][Abu][Dab][Dab]T; disulfide I:2-I:11; amide I:5-II:N; lactam II:4-II:C)	0/3 died at 2 × 40 mg/kg	<1	1 (≈ 0.419 µM)	0.125	0.0625	0.125	0.25 (≈ 0.105 µM)	2 (≈ 0.839 µM)	0.125	0.125 (≈ 0.0524 µM)	–	–	–	–	–
CC[C@@H]1NC(=O)[C@@H](CC(C)C)NC(=O)[C@H](CCN)NC(=O)[C@@H](NC(=O)[C@H](CN)NC(=O)[C@@H](NC(=O)[C@H](CCN)NC(=O)CC[C@@H]2NC(=O)[C@H](CCN)NC(=O)[C@H](Cc3ccc(O)cc3)NC(=O)[C@@H](NC(=O)[C@@H](NC(C)=O)C(C)C)CSSC[C@@H](C(=O)N[C@@H](CO)C(N)=O)NC(=O)[C@H]([C@@H](C)CC)NC(=O)[C@H](CO)NC(=O)[C@H](Cc3c[nH]c4ccccc34)NC(=O)[C@H](CCN)NC(=O)CNC2=O)[C@@H](C)O)CCNC(=O)[C@H]([C@@H](C)O)NC(=O)[C@H](CCN)NC(=O)[C@H](CCN)NC1=O [Ex. 299] (I: Ac-VCY[Dab]EG[Dab]WSICS-NH2 / II: [Dab]T[Dap][Dab][Dab][dL][Abu][Dab][Dab]T; disulfide I:2-I:11; amide I:5-II:N; lactam II:4-II:C)	0/3 died at 2 × 40 mg/kg	<1	0.125 (≈ 0.0531 µM)	0.0625	0.0625	0.0625	0.25 (≈ 0.106 µM)	0.5 (≈ 0.212 µM)	0.25	0.125 (≈ 0.0531 µM)	–	–	–	–	–
CC(=O)N[C@H](C(=O)N[C@H]1CSSC[C@@H](C(=O)N[C@@H](CO)C(N)=O)NC(=O)[C@H](C(C)C)NC(=O)[C@H](CO)NC(=O)[C@H](Cc2c[nH]c3ccccc23)NC(=O)[C@H](CO)NC(=O)CNC(=O)[C@H](CCC(=O)N[C@@H](CCN)C(=O)N[C@H](C(=O)N[C@@H](CN)C(=O)N[C@H]2CCNC(=O)[C@H]([C@@H](C)O)NC(=O)[C@H](CCN)NC(=O)[C@H](CCN)NC(=O)[C@H](CC(C)C)NC(=O)[C@@H](CC(C)C)NC(=O)[C@H](CCN)NC2=O)[C@@H](C)O)NC(=O)[C@H](CCN)NC(=O)[C@H](Cc2ccc(O)cc2)NC1=O)C(C)C [Ex. 337] (I: Ac-VCY[Dab]EGSWSVCS-NH2 / II: [Dab]T[Dap][Dab][Dab][dL]L[Dab][Dab]T; disulfide I:2-I:11; amide I:5-II:N; lactam II:4-II:C)	0/3 died at 2 × 40 mg/kg	2	0.25 (≈ 0.106 µM)	0.0625	0.125	0.125	1 (≈ 0.424 µM)	2 (≈ 0.849 µM)	0.25	0.25 (≈ 0.106 µM)	–	–	–	–	–
CC(=O)N[C@H](C(=O)N[C@H]1CSSC[C@@H](C(=O)N[C@@H](CO)C(N)=O)NC(=O)[C@H](C(C)C)NC(=O)[C@H](CCN)NC(=O)[C@H](Cc2c[nH]c3ccccc23)NC(=O)[C@H](CO)NC(=O)[C@@H](CO)NC(=O)[C@H](CCC(=O)N[C@@H](CCN)C(=O)N[C@H](C(=O)N[C@@H](CN)C(=O)N[C@H]2CCNC(=O)[C@H]([C@@H](C)O)NC(=O)[C@H](CCN)NC(=O)[C@H](CCN)NC(=O)[C@H](CC(C)C)NC(=O)[C@@H](CC(C)C)NC(=O)[C@H](CCN)NC2=O)[C@@H](C)O)NC(=O)[C@H](CCN)NC(=O)[C@H](Cc2ccc(O)cc2)NC1=O)C(C)C [Ex. 296] (I: Ac-VCY[Dab]E[dS]SW[Dab]VCS-NH2 / II: [Dab]T[Dap][Dab][Dab][dL]L[Dab][Dab]T; disulfide I:2-I:11; amide I:5-II:N; lactam II:4-II:C)	0/3 died at 2 × 40 mg/kg	<1	0.25 (≈ 0.104 µM)	–	–	–	0.5 (≈ 0.208 µM)	4 (≈ 1.67 µM)	–	0.5 (≈ 0.208 µM)	–	0.125 (≈ 0.0521 µM)	0.0625 (≈ 0.0261 µM)	0.125 (≈ 0.0521 µM)	0.25 (≈ 0.104 µM)
